Data reported in patent US8592456B2 (4SC Discovery GmbH, priority 2011, dated 2013).

Each compound was assayed on PBMC (T cell proliferation) (assay: T cell proliferation assay, PHA-stimulated human PBMC (BrdU ELISA)). Settings: PHA-stimulated human PBMC, 48 hours, BrdU; column D; activity classes 1-4; read-out: IC50 (Tcell proliferation).
Type: cell-based
Procedure: Cell proliferation was analysed using the BrdU based cell proliferation ELISA from Roche (Mannheim, Germany) according to the manufacturer's instructions.
T Cell Proliferation Assay
Peripheral blood mononuclear cells (PBMC) from healthy human donors were isolated by centrifugation over Ficoll-Hypaque (Sigma-Aldrich, Germany) according to manufacturer's instructions. Purified PBMC were washed twice with PBS and resuspended in RPMI1640 culture medium supplemented with 10% dialyzed heat inactivated fetal calf serum, 1.5 mM L-glutamine, 100 U penicillin/ml, and […] (all from PAN Biotech, Aidenbach, Germany). For stimulation, PBMC were seeded at 1×10^5 cells/well, activated with 2 μg/ml phytohaemagglutinin (PHA, Sigma) and incubated with the test compound. After 48 hours proliferation was measured using the BrdU based cell proliferation ELISA from Roche (Mannheim, Germany) according to the manual.
With `Cc1nnc(-c2c(-c3c(F)cccc3Cl)noc2-c2cnn(-c3cccc(Cl)c3)c2C(F)(F)F)s1` [IB-3, 3-(2-chloro-6-fluorophenyl)-5-(1-(3-chlorophenyl)-5-(trifluoromethyl)-1H-pyrazol-4-yl)-4-(5-methyl-1,3,4-thiadiazol-2-yl)isoxazole] the IC50 was < 10 nM. For `Fc1cccc(Cl)c1-c1noc(-c2cnn(-c3cccc(Cl)c3)c2C(F)(F)F)c1-c1ccco1` [IB-6, 3-(2-chloro-6-fluorophenyl)-5-(1-(3-chlorophenyl)-5-(trifluoromethyl)-1H-pyrazol-4-yl)-4-(furan-2-yl)isoxazole], the IC50 was < 10 nM. `Fc1cccc(-n2ncc(-c3onc(-c4c(F)cccc4Cl)c3-c3ccsc3)c2C(F)(F)F)c1` [Example I-16, 3-(2-chloro-6-fluorophenyl)-5-(1-(3-fluorophenyl)-5-(trifluoromethyl)-1H-pyrazol-4-yl)-4-(thiophen-3-yl)isoxazole] was tested, and the IC50 was < 10 nM. For `Cc1nnc(-c2c(-c3c(F)cccc3Cl)noc2-c2cnn(-c3cccc(Cl)c3)c2C(F)(F)F)o1` [IB-4, 2-(3-(2-chloro-6-fluorophenyl)-5-(1-(3-chlorophenyl)-5-(trifluoromethyl)-1H-pyrazol-4-yl)isoxazol-4-yl)-5-methyl-1,3,4-oxadiazole], the IC50 was < 10 nM.

Same assay, conditions: human PBMC, 2 μg/ml PHA, 48 hours, BrdU; read-out: D: IC50 (Tcell proliferation)
Work on `COC(=O)c1c(-c2ccc(Cl)cc2Cl)noc1-c1cnn(-c2cccc(F)c2)c1C(F)(F)F` [Example 111, methyl 3-(2,4-dichlorophenyl)-5-(1-(3-fluorophenyl)-5-(trifluoromethyl)-1H-pyrazol-4-y)isoxazole-4-carboxylate] yielded an IC50 of 100 to 1000 nM. For `Fc1cc(F)cc(-n2ncc(-c3onc(-c4c(F)cccc4Cl)c3Br)c2C(F)(F)F)c1` [Example B-27, 4-bromo-3-(2-chloro-6-fluorophenyl)-5-(1-(3,5-difluorophenyl)-5-(trifluoromethyl)-1H-pyrazol-4-yl)isoxazole], the IC50 was 100 to 1000 nM. With `CN1CCN(C(=O)c2c(-c3c(F)cccc3Cl)noc2-c2cnn(-c3ccccc3F)c2C(F)(F)F)CC1` [Example 17, (3-(2-chloro-6-fluorophenyl)-5-(1-(2-fluorophenyl)-5-(trifluoromethyl)-1H-pyrazol-4-yl)isoxazol-4-yl)(4-methylpiperazin-1-yl)methanone] the IC50 was 1000 to 10000 nM. Compound `COC(=O)c1c(-c2c(F)cccc2Cl)noc1-c1cnn(-c2nccc(C(F)(F)F)n2)c1C(F)(F)F` [Example 67, methyl 3-(2-chloro-6-fluorophenyl)-5-(5-(trifluoromethyl)-1-(4-(trifluoromethyl)pyrimidin-2-yl)-1H-pyrazol-4-yl)isoxazole-4-carboxylate] has an IC50 of 100 to 1000 nM. Work on `CN1CCN(C(=O)c2c(-c3c(F)cccc3Cl)noc2-c2cnn(-c3cccc(Cl)c3)c2C(F)(F)F)CC1` [Example B-34, (3-(2-chloro-6-fluorophenyl)-5-(1-(3-chlorophenyl)-5-(trifluoromethyl)-1H-pyrazol-4-yl)-isoxazol-4-yl)(4-methylpiperazin-1-yl)methanone] yielded an IC50 of 100 to 1000 nM. In the case of `CCOC(=O)c1c(-c2c(F)cccc2Cl)noc1-c1cnn(-c2ccccc2C#N)c1C(F)(F)F` [Example B-44, ethyl 3-(2-chloro-6-fluorophenyl)-5-(1-(2-cyanophenyl)-5-(trifluoromethyl)-1H-pyrazol-4-yl)-isoxazole-4-carboxylate], the IC50 is reported as 1000 to 10000 nM. With `COC(=O)c1c(-c2c(F)cccc2Cl)noc1-c1cnn(-c2ccc(C(C)(C)C)cc2)c1C(F)(F)F` [Example 81, methyl 5-(1-(4-tert-butylphenyl)-5-(trifluoromethyl)-1H-pyrazol-4-yl)-3-(2-chloro-6-fluorophenyl)isoxazole-4-carboxylate] the IC50 was 1000 to 10000 nM. Work on `COC(=O)c1c(-c2c(F)cccc2Cl)noc1-c1cnn(-c2cccc(F)c2)c1` [Example B-21, methyl 3-(2-chloro-6-fluorophenyl)-5-(1-(3-fluorophenyl)-1H-pyrazol-4-yl)isoxazole-4-carboxylate] yielded an IC50 of 100 to 1000 nM. Work on `COC(=O)c1c(-c2c(F)cccc2Cl)noc1-c1cnn(CC(C)C)c1C(F)(F)F` [Example 28] yielded an IC50 of 100 to 1000 nM. For `CO/C(=N\c1c(-c2c(F)cccc2Cl)noc1-c1cnn(-c2cccc(F)c2)c1C(F)(F)F)C(F)(F)F` [Example 136, (Z)-methyl N-(3-(2-chloro-6-fluorophenyl)-5-(1-(3-fluorophenyl)-5-(trifluoromethyl)-1H-pyrazol-4-yl)isoxazol-4-yl)-2,2,2-trifluoroacetimidate], the IC50 was 100 to 1000 nM. Compound `O=C(c1c(-c2c(F)cccc2Cl)noc1-c1cnn(-c2cccc(Cl)c2)c1C(F)(F)F)N1CCCO1` [Example 132, (3-(2-chloro-6-fluorophenyl)-5-(1-(3-chlorophenyl)-5-(trifluoromethyl)-1H-pyrazol-4-yl)isoxazol-4-yl)(isoxazolidin-2-yl)methanone] has an IC50 of 10 to 100 nM. `CSC(=O)c1c(-c2c(F)cccc2Cl)noc1-c1cnn(-c2cccc(Cl)c2)c1C(F)(F)F` [Example 126, S-methyl 3-(2-chloro-6-fluorophenyl)-5-(1-(3-chlorophenyl)-5-(trifluoromethyl)-1H-pyrazol-4-yl)isoxazole-4-carbothioate] was tested, and the IC50 was < 10 nM. For `COC(=O)c1c(-c2c(F)cccc2Cl)noc1-c1cnn(-c2ccccn2)c1C(F)(F)F` [Example 84, methyl 3-(2-chloro-6-fluorophenyl)-5-(1-(pyridin-2-yl)-5-(trifluoromethyl)-1H-pyrazol-4-yl)isoxazole-4-carboxylate], the IC50 was < 10 nM. With `CNC(=O)c1c(-c2ccccc2Cl)noc1-c1cnn(-c2cccc(Cl)c2)c1C(F)(F)F` [Example B-63, 3-(2-chlorophenyl)-5-(1-(3-chlorophenyl)-5-(trifluoromethyl)-1H-pyrazol-4-yl)-N-methylisoxazole-4-carboxamide] the IC50 was 100 to 1000 nM. In the case of `CCOC(=O)c1c(-c2c(Cl)cncc2Cl)noc1-c1cnn(-c2ccncc2)c1C(F)(F)F` [Example B-10, ethyl 3-(3,5-dichloropyridin-4-yl)-5-(1-(pyridin-4-yl)-5-(trifluoromethyl)-1H-pyrazol-4-yl)isoxazole-4-carboxylate], the IC50 is reported as 100 to 1000 nM. `COC(=O)c1c(-c2c(F)cccc2Cl)noc1-c1cnn(-c2cccc(N)c2)c1C(F)(F)F` [Example B-92, methyl 5-(1-(3-aminophenyl)-5-trifluoromethyl)-1H-pyrazol-4-yl)-3-(2-chloro-6-fluorophenyl)isoxazole-4-carboxylate] gave an IC50 of 10 to 100 nM. Work on `CNC(=O)c1c(-c2c(F)cccc2Cl)noc1-c1cnn(-c2cccc(Cl)c2)c1C(F)(F)F` [Example 32, 3-(2-chloro-6-fluorophenyl)-5-(1-(3-chlorophenyl)-5-(trifluoromethyl)-1H-pyrazol-4-yl)-N-methylisoxazole-4-carboxamide] yielded an IC50 of 10 to 100 nM. `NC(=S)c1c(-c2c(F)cccc2Cl)noc1-c1cnn(-c2cccc(Cl)c2)c1C(F)(F)F` [Example 125, 3-(2-chloro-6-fluorophenyl)-5-(1-(3-chlorophenyl)-5-(trifluoromethyl)-1H-pyrazol-4-yl)isoxazole-4-carbothioamide] showed an IC50 of 1000 to 10000 nM. Work on `Fc1cccc(-n2ncc(-c3onc(-c4c(F)cccc4Cl)c3Br)c2C(F)(F)F)c1` [Example 137, 4-bromo-3-(2-chloro-6-fluorophenyl)-5-(1-(3-fluorophenyl)-5-(trifluoromethyl)-1H-pyrazol-4-yl)isoxazole] yielded an IC50 of 10 to 100 nM.
